How the values were obtained:
Mv1Lu cells = assay: In vitro test for cytotoxicity of acetaminophen; format: cell-based, mink; conditions: five days of incubation; concentration as high as 1000 μg/mL
Description: Specifically, mink lung epithelial cells, Mv1Lu, were treated with acetaminophen.

MHV-A59 = assay: In vivo test of acetaminophen against MHV-infected mice; design: species or system C57BL/6 mice; conditions: 0.25 mg/mL acetaminophen solution daily via oral gavage, MHV-A59 5×10^6 PFU/mouse i.p.
Description: The present invention utilized the Mouse Hepatitis Virus (MHV) and swine virus PRRS as the infectious agents to evaluate the effectiveness of acetaminophen in vivo. We aimed to perform mouse and piglet survival experiments to completely assess acetaminophen against virus infection as a preclinical evaluation.
Intraperitoneal administration of MHV-A59 with high titer (5×10^6 PFU/mouse) on C57BL/6 mice to cause a high mortality rate. The MHV-infected mice were grouped as follows: 1. PBS vehicle control; 2. 0.25 mg/mL of acetaminophen solution treatment groups followed by treating acetaminophen daily via oral gavage. The viral administration cause loss of body weights on mice. […] These animal data strongly argue the potential application of acetaminophen in developing to an antiviral agent.

PRRS virus (PRRSV2) [1] = assay: In vivo test of acetaminophen against PRRS-infected piglet; conditions: 80 mL acetaminophen therapy three times orally
Description: (§1) In this embodiment, the weaned piglets were selected according to their PRRS syndromes. The three piglets were randomly selected in accordance with the professional experience on the syndromes of PRRS and the […] principles of animal test were followed as well. Three infected piglets were proceeded for preliminary test of the effectiveness of antiviral drugs of PRRS.
(§2) Three infected piglets raised in an isolated pen of the same pig house. Eighty milliliter acetaminophen therapy was given three times orally. Their blood samples were test weekly. Unfortunately, piglet 1 was unable to make over the first week. The other 2 piglets were able make over the process.

PRRS virus (PRRSV2) [2] = assay: as above; design: unit not given here
Description: as §1, §2

PRRS virus (PRRSV2) [3] = assay: as above; design: key: −: Negative; ±: Virus was detected at very low concentrations
Description: as §1, §2

CC(=O)Nc1ccc(O)cc1 [acetaminophen]
cytotoxicity on Mv1Lu cells (Mv1Lu cells): no significant cytotoxicity | body weight of MHV-infected mice (MHV-A59; compared to MHV-only mice): significantly retained the mouse weights | survival rate (printed as mortality rate) of MHV-infected mice (MHV-A59; virus vehicle control 100% death rate): 50% | virus concentration in the body (PRRS virus (PRRSV2) [1]; piglets 2 and 3): decreased | survival of PRRS-infected piglets (PRRS virus (PRRSV2) [1]; three infected piglets): piglets 2 and piglet 3 survived | Concentration of PRRSV2 by RT-PCR (PRRS virus (PRRSV2) [2]; Piglet 1, test 1 (weekly blood sample)): 7.7 × 10 ^5 | Concentration of PRRSV2 by RT-PCR (PRRS virus (PRRSV2) [2]; Piglet 2, test 2 (weekly blood sample), weekly blood test 2): 1.3 × 10^3 | Concentration of PRRSV2 by RT-PCR (PRRS virus (PRRSV2) [2]; Piglet 3, test 1 (weekly blood sample), weekly blood test 1): 8.2 × 10 ^4 | Concentration of PRRSV2 by RT-PCR (PRRS virus (PRRSV2) [2]; Piglet 3, test 3 (weekly blood sample), weekly blood test 3): 2.9 × 10 ^2 | Concentration of PRRSV2 by RT-PCR (PRRS virus (PRRSV2) [3]; Piglet 2, test 1 (weekly blood sample), weekly blood test 1): − | Concentration of PRRSV2 by RT-PCR (PRRS virus (PRRSV2) [3]; Piglet 2, test 3 (weekly blood sample), weekly blood test 3): − | Concentration of PRRSV2 by RT-PCR (PRRS virus (PRRSV2) [3]; Piglet 3, test 2 (weekly blood sample), weekly blood test 2): ±

Reference: US20250120929A1, “METHOD OF TREATING VIRUS-ASSOCIATED INFECTION USING ACETAMINOPHEN” (Sanbiozi Medical Science Inc., priority 2023, published 2025)
